{"source": "paper PMC6368365", "about": "“Didehydro-Cortistatin A Inhibits HIV-1 by Specifically Binding to the Unstructured Basic Region of Tat” (mBio, 2019)", "key": {"FLAG-Tat": {"molecular_target": "T1, FLAG-Tat (Human immunodeficiency virus type 1 group M subtype B, UniProt P69697)", "T1 construct": "expressed in transfected cells; host or cells: HeLa-CD4-LTR-Luc", "T1 sequence (P69697 whole entry, the tested form may be a part)": "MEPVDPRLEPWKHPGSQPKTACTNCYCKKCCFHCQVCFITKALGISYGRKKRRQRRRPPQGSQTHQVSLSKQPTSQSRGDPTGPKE", "test": "Confocal immunofluorescence of FLAG-Tat subcellular localization", "format": "cell-based, HIV-1", "conditions": "100 nM dCA, HeLa-CD4-LTR-Luc cells", "excerpt": "(§1) If dCA were to bind the basic domain of Tat in its disordered form, then one would predict it might also bind to other basic peptide sequences and block their functions. The two well-known proteins that share a similar basic domain with Tat are HIV-1 Rev protein and the cellular protein Hexim-1 (Fig. 3A). As such, we investigated whether dCA could inhibit these similar basic domain functions. The basic domain of Rev is responsible for its nuclear localization ([31]); therefore, we assessed whether dCA could impact the subcellular localization of Rev (Fig. 3B) as previously shown for Tat ([10]). We transfected HeLa-CD4-LTR-Luc cells with a plasmid expressing FLAG-tagged Rev and assessed Rev localization in the presence of 100 nM dCA. […] Twenty-four hours later, cells were collected, and total, nuclear, and cytoplasmic mRNAs were extracted, reverse transcribed, and quantified by quantitative real-time PCR (qRT-PCR).\n(§2) (A) Sequence of the basic domains of HIV Tat HXB3, HIV Rev Bru and intracellular Hexim-1. […] (C) Quantification of the nucleolar fluorescence of panel B using ImageJ. […] Total, nuclear, and cytoplasmic mRNAs were extracted, and viral messages were determined by qRT-PCR. […] (G) Quantification of nuclear fluorescence of panel F using ImageJ. […] Statistical significance was determined using one-way ANOVA with post hoc Tukey’s test. ns, not significant; ***, P < 0.0001; **, P < 0.001. […]"}, "FLAG-tagged Rev": {"molecular_target": "T2, FLAG-tagged Rev (Human immunodeficiency virus type 1 group M subtype B, UniProt P04618)", "T2 construct": "expressed in transfected cells; host or cells: HeLa-CD4-LTR-Luc", "T2 sequence (P04618 whole entry, looked up)": "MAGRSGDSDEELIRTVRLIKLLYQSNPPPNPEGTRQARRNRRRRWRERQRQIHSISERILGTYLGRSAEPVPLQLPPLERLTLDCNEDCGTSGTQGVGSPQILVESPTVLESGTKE", "test": "Confocal immunofluorescence of FLAG-Rev subcellular localization", "format": "cell-based, HIV-1", "conditions": "100 nM dCA, HeLa-CD4-LTR-Luc cells", "excerpt": "as §1, §2"}}}
{"smiles": "CN(C)C1CC23CCC4(O2)C(=CCC2(C)C(c5ccc6ccncc6c5)=CCC24)C=C3C(O)C1O", "note": "(centres unmarked) [dCA, didehydro-cortistatin A]", "values": [{"measurement": "subcellular localization of Tat", "setting": "FLAG-Tat", "result": "significant redistribution of Tat to the periphery of the nucleolus"}, {"measurement": "subcellular localization of Rev", "setting": "FLAG-tagged Rev", "result": "localization of Rev was left unchanged"}]}
